Reference: ChEMBL document CHEMBL1201862, “PubChem BioAssay data set” (2004)
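Step 1: Grow cells in 96-well plates. Step 2: Expose to compound for 48 hours at 5 concentrations. Step 3: Interpolate endpoints linearly; if unreached, use highest concentration. GI50 = concentration required for 50% inhibition of growth.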 The source made the active and inactive calls. Cut-off read from the data, not from the text of the source: active = GI50 up to about 1.1 µM and inactive = higher.

What was measured:
Test in all cases: inhibition of tumour cell growth, NCI panel, 48 h
NCI-H226 = test system: NCI-H226
SK-MEL-5 = test system: SK-MEL-5
SF-268 = test system: SF-268
Hs-578T = test system: Hs-578T
NCI-H460 = test system: NCI-H460
BT-549 = test system: BT-549
OVCAR-8 = test system: OVCAR-8
HCT-15 = test system: HCT-15
RPMI-8226 = test system: RPMI-8226
EKVX = test system: EKVX
PC-3 = test system: PC-3
RXF 393 = test system: RXF 393
SK-MEL-28 = test system: SK-MEL-28
MOLT-4 = test system: MOLT-4
LOX IMVI = test system: LOX IMVI
OVCAR-5 = test system: OVCAR-5
SNB-75 = test system: SNB-75
UACC-257 = test system: UACC-257
KM12 = test system: KM12
HOP-62 = test system: HOP-62

Row | Structure (SMILES) | GI50 (NCI-H226) | GI50 (SK-MEL-5) | GI50 (SF-268) | GI50 (Hs-578T) | GI50 (NCI-H460) | GI50 (BT-549) | GI50 (OVCAR-8) | GI50 (HCT-15) [µM] | GI50 (RPMI-8226) | GI50 (EKVX) | GI50 (PC-3) | GI50 (RXF 393) | GI50 (SK-MEL-28) | GI50 (MOLT-4) | GI50 (LOX IMVI) | GI50 (OVCAR-5) | GI50 (SNB-75) | GI50 (UACC-257) | GI50 (KM12) | GI50 (HOP-62)
1 | Nc1nc(Cl)c(CO)c(NCC2(CO)CC(CCc3ccccc3)C2)n1 (stereo not given) | 13.3 µM (inactive) | 17.3 µM (inactive) | 43.1 µM (inactive) | > 10 µM (inactive) | 13.1 µM (inactive) | 15.4 µM (inactive) | 12.7 µM (inactive) | 20.6 | 3.5 µM (inactive) | 19.2 µM (inactive) | 51.3 µM (inactive) | 20.9 µM (inactive) | 20.4 µM (inactive) | 2.1 µM (inactive) | 12.5 µM (inactive) | 29.2 µM (inactive) | 16.1 µM (inactive) | 11.4 µM (inactive) | 0.264 µM (active) | 25.4 µM (inactive)
2 | O=C1C(Br)=C(c2ccccc2)C(c2ccccc2)=C1c1ccccc1 | 8.43 µM (inactive) | 2.94 µM (inactive) | 3.44 µM (inactive) | 13.7 µM (inactive) | 4.83 µM (inactive) | 3.6 µM (inactive) | 2.04 µM (inactive) | 1.76 | 1.45 µM (inactive) | 8.75 µM (inactive) | 4.1 µM (inactive) | 1.99 µM (inactive) | 2.61 µM (inactive) | 0.601 µM (active) | 1.33 µM (inactive) | 12 µM (inactive) | 3.63 µM (inactive) | 3.35 µM (inactive) | 5.94 µM (inactive) | 14.2 µM (inactive)
3 | CN1C(c2ccccc2)=CC(=O)C(O)=C(c2ccccc2)S1(=O)=O | > 100 µM (inactive) | > 100 µM (inactive) | > 100 µM (inactive) | > 100 µM (inactive) | > 100 µM (inactive) | > 100 µM (inactive) | > 100 µM (inactive) | > 100 | > 100 µM (inactive) | > 100 µM (inactive) | > 100 µM (inactive) | > 100 µM (inactive) | > 100 µM (inactive) | > 100 µM (inactive) | > 100 µM (inactive) | > 100 µM (inactive) | > 100 µM (inactive) | > 100 µM (inactive) | > 100 µM (inactive) | > 100 µM (inactive)
4 | CC(C)c1cccc(C(C)C)c1NC(=O)/C(CC(=O)CC(c1ccccc1)c1c(O)c2ccccc2oc1=O)=N/O (stereo not given) | > 100 µM (inactive) | > 100 µM (inactive) | > 100 µM (inactive) | > 100 µM (inactive) | > 100 µM (inactive) | > 100 µM (inactive) | > 100 µM (inactive) | > 100 | > 100 µM (inactive) | > 100 µM (inactive) | > 100 µM (inactive) | > 100 µM (inactive) | > 100 µM (inactive) | > 100 µM (inactive) | > 100 µM (inactive) | > 100 µM (inactive) | > 100 µM (inactive) | > 100 µM (inactive) | > 100 µM (inactive) | > 100 µM (inactive)
